Results from BindingDB's records for doi:10.1007/s10822-022-00478-x (Roche Innovation Center Basel, F. Hoffmann-La Roche Ltd., 2022).

Molecular target: cAMP and cAMP-inhibited cGMP 3',5'-cyclic phosphodiesterase 10A (Homo sapiens, UniProt Q9Y233)
Test: PDE10A assay
Procedure: Compounds were diluted in 20 mM HEPES/NaOH (pH 7.5), 10 mM MgCl2 and 0.05 mg/ml bovine serum albumin. A fixed amount of 2 ng/well human PDE10A enzyme was added and incubated at room temperature for 15 min under agitation. The reaction was started by the addition of the substrate cocktail [3H]cGMP (Perkin Elmer NET337001MC, S.A. 13.5 Ci/mmol) / cGMP at a final concentration of 50 nM and incubated for an additional 15 min. The reaction was stopped by the addition of 0.5 mg/well of Y-Si SPA beads. The plates were shaken for 1 h, followed by a brief centrifugation (170 g for 1 min). The radioactivity bound to the beads was estimated using a TopCount (Perkin-Elmer). For the determination of IC50 values, a four parameters logistics equation was used. pIC50 is defined as − log10(IC50).

IC50 [nM]	Structure (SMILES)
2.26	O=C(Nc1cnc(-c2ccccn2)s1)c1nc(C2CC2)ccc1Nc1cncnc1
1.32	O=C(Nc1cc(-c2ccccn2)nn1C1CCCCC1)c1nc(C2CC2)ccc1Nc1cncnc1
4.74	Cc1c(C(F)F)nc2ccc(C#Cc3nc(N4CCCC4)nn3C)nn12 [2-(Difluoromethyl)-3-methyl-6-((1-methyl-3-(pyrrolidin-1-yl)-1H-1,2,4-triazol-5-yl)ethynyl)imidazo[1,2-b]pyridazine]
547	CCc1nc2ccc(OCc3cccc(N4CCCC4)n3)nn2c1C [2-ethyl-3-methyl-6-((6-(pyrrolidin-1-yl)pyridin-2-yl)methoxy)imidazo[1,2-b]pyridazine]
38	Cc1nc2ccccc2nc1OCc1cccc(N2CCCC2)n1 [2-methyl-3-((6-(pyrrolidin-1-yl)pyridin-2-yl)methoxy)quinoxaline]
3.92	Cc1c(C(F)(F)F)nc2ccc(C#Cc3nc(N4CCCC4)n(C)n3)nn12 [3-Methyl-6-((1-methyl-5-(pyrrolidin-1-yl)-1H-1,2,4-triazol-3-yl)ethynyl)-2-(trifluoromethyl)imidazo[1,2-b]pyridazine]
58	c1cc(COc2nc(N3CCOCC3)c3ccccc3n2)nc(N2CCCC2)c1 [4-(2-((6-(pyrrolidin-1-yl)pyridin-2-yl)methoxy)quinazolin-4-yl)morpholine]
307	Cc1cc(C)n2nc(CCc3cncc(N4CCCC4)n3)nc2n1 [5,7-dimethyl-2-(2-(6-(pyrrolidin-1-yl)pyrazin-2-yl)ethyl)-[1,2,4]triazolo-[1,5-a]pyrimidine]
7.71	CN(C)c1nc(OCc2cccc(N3CCCC3)n2)nc2ccc(Cl)cc12 [6-chloro-n,n-dimethyl-2-((6-(pyrrolidin-1-yl)pyridin-2-yl)methoxy)quinazolin-4-amine]
6.05	CCN(C)C(=O)c1cnn(C)c1C(=O)Nc1ccn2cc(-c3cccc(OCCCF)c3)nc2n1 [Roche-Dataset for PDE10A, Compound 1]
15	COCCN(C)C(=O)c1cnn(C)c1C(=O)Nc1ccn2cc(-c3cccc(OCCCF)c3)nc2n1 [Roche-Dataset for PDE10A, Compound 3]
0.3	Cn1ncc(C(=O)N2CCC2)c1C(=O)Nc1ccn2nc(-c3ccccc3OCCCF)nc2c1 [Roche-Dataset for PDE10A, Compound 11]
0.35	Cn1ncc(C(=O)N2CCC2)c1C(=O)Nc1ccn2nc(-c3ccccc3OCCF)nc2c1 [Roche-Dataset for PDE10A, Compound 14]
1.82	Cc1nc2ccccc2nc1CCc1nc(-c2ccccc2)cn1-c1ccccn1 [Roche-Dataset for PDE10A, Compound 17]
3.09	CN(CCO)c1nc(OCc2nc(-c3ccccc3)cn2C)nc2ccc(Cl)cc12 [Roche-Dataset for PDE10A, Compound 19]
7.93	CCN(C)C(=O)c1cnn(C)c1C(=O)Nc1ccn2cc(-c3cccc(OCC(=O)OC)c3)nc2n1 [Roche-Dataset for PDE10A, Compound 20]
2.07	Cc1c(Cl)cc(OCC(=O)N2CCOCC2)c2nc(CCc3nc(N4CCCC4)nn3C)nn12 [Roche-Dataset for PDE10A, Compound 23]
1.41	O=C(Nc1cc(-c2ccccn2)nn1C1CCOCC1)c1nc(C2CC2)ccc1Nc1cncnc1 [Roche-Dataset for PDE10A, Compound 24]
10000	CCN(C)C(=O)c1cnn(CCF)c1C(=O)Nc1ccn2cc(-c3ccccc3)nc2n1 [Roche-Dataset for PDE10A, Compound 26]

IC50 [nM]	Structure (SMILES)
7.34	Cn1ncc(C(=O)N2CCC2)c1C(=O)Nc1ccn2cc(-c3cccc(OCCCF)c3)nc2n1 [Roche-Dataset for PDE10A, Compound 28]
1.07	Cc1cc(-n2nc(N3CCCC3)nc2CCc2nc3c(C(F)(F)F)cc(Cl)c(C)n3n2)ccn1 [Roche-Dataset for PDE10A, Compound 34]
16	Cn1cc(-c2ccccc2)nc1CCNC(=O)c1nc(C2CC2)cnc1Nc1cncnc1 [Roche-Dataset for PDE10A, Compound 36]
2.58	COc1ccc(Cn2nc(CCc3nc4c(Cl)cc(Cl)c(C)n4n3)nc2N2CCCC2)cc1 [Roche-Dataset for PDE10A, Compound 37]
15	COC[C@H]1CCCN1c1nc(CCc2nc3c(C)ncc(C)n3n2)n(Cc2ccc(OC)cc2)n1 [Roche-Dataset for PDE10A, Compound 38]
8.81	CCN(C)C(=O)c1cnn(C)c1C(=O)Nc1ccn2cc(-c3cccc(OCCO)c3)nc2n1 [Roche-Dataset for PDE10A, Compound 39]
9.83	Cc1cc(-n2nc(CCc3nc4c(C(F)(F)F)cc(Cl)c(C)n4n3)nc2N2CCCC2)ccn1 [Roche-Dataset for PDE10A, Compound 40]
7.17	CN(C)C(=O)c1cnn(C)c1C(=O)Nc1ccn2cc(-c3cccc(OCCCF)c3)nc2n1 [Roche-Dataset for PDE10A, Compound 43]
13	COCCN(C)C(=O)c1cnn(C)c1C(=O)Nc1ccn2cc(-c3cccc(OCCF)c3)nc2n1 [Roche-Dataset for PDE10A, Compound 45]
859	CC(C)n1ncc2cc(CCc3nc(-c4ccccc4)cn3C)ncc21 [Roche-Dataset for PDE10A, Compound 48]
122	Cn1cc(-c2ccccc2)nc1CCc1nc2cccc(Cl)c2c(=O)[nH]1 [Roche-Dataset for PDE10A, Compound 52]
1.08	Cn1cc(-c2ccccc2)nc1CCc1nc(N2CCOCC2)c2cc(Cl)ccc2n1 [Roche-Dataset for PDE10A, Compound 54]
3.25	CN(C)c1nc(CCc2nc(-c3ccccc3)cn2C)nc2ccc(Cl)cc12 [Roche-Dataset for PDE10A, Compound 55]
57	Cn1cc(-c2ccccc2)nc1COc1ncc(C2CC2)nc1C(=O)NCc1ccccc1 [Roche-Dataset for PDE10A, Compound 59]
9.29	Cc1nc2ccccc2nc1CCc1nc(-c2ccccc2)cn1CC1CC1 [Roche-Dataset for PDE10A, Compound 62]
1.31	Cn1cc(-c2ccccc2)nc1/C=C/c1nc(N2CCOCC2)c2cc(Cl)ccc2n1 [Roche-Dataset for PDE10A, Compound 64]
5.36	Cn1ncc(C(=O)N2CCC2)c1C(=O)Nc1ccn2nc(-c3cccc(OCCF)n3)nc2c1 [Roche-Dataset for PDE10A, Compound 66]
81	Cc1cc(Cl)cc2c(=O)[nH]c(CCc3nc(-c4ccccc4)cn3C)nc12 [Roche-Dataset for PDE10A, Compound 70]
1.73	Cn1ncc(C(=O)N2CCC2)c1C(=O)Nc1ccn2nc(-c3ccccc3OCF)nc2c1 [Roche-Dataset for PDE10A, Compound 71]

IC50 [nM]	Structure (SMILES)
178	Cc1nc2ccccc2nc1CCc1nc(-c2ccccc2)cn1CC(F)(F)F [Roche-Dataset for PDE10A, Compound 72]
3.47	CCN(C)C(=O)c1cnn(C)c1C(=O)Nc1ccn2cc(-c3cccc(O)c3)nc2n1 [Roche-Dataset for PDE10A, Compound 73]
15	Cc1cccc2c(=O)[nH]c(CCc3nc(-c4ccccc4)cn3C)nc12 [Roche-Dataset for PDE10A, Compound 74]
20	Cc1nc(C(=O)N2CCC2)c(C(=O)Nc2ccn3nc(-c4ccccc4)nc3c2)n1C [Roche-Dataset for PDE10A, Compound 75]
0.9	Cn1ncc(C(=O)N2CCC2)c1C(=O)Nc1ccn2nc(-c3cccc(OCCF)c3)nc2c1 [Roche-Dataset for PDE10A, Compound 76]
1.27	Cc1c(C#N)nc2ccc(C#Cc3nc(-c4ccccc4)cn3C)nn12 [Roche-Dataset for PDE10A, Compound 79]
163	COCCN(C)C(=O)c1cnn(C)c1C(=O)Nc1ccn2cc(-c3cccc(F)n3)nc2n1 [Roche-Dataset for PDE10A, Compound 81]
14	Cn1ncc(C(=O)NCCOCCO)c1C(=O)Nc1ccn2nc(-c3ccccc3)nc2c1 [Roche-Dataset for PDE10A, Compound 84]
52	O=C(Nc1ccn2nc(-c3ccccc3)nc2c1)c1cc(Cl)nc(N2CCCCC2)c1 [Roche-Dataset for PDE10A, Compound 86]
41	CCn1cc(-c2ccccc2)nc1CCc1nc2ccccc2nc1C [Roche-Dataset for PDE10A, Compound 87]
3.68	CN(C)c1nc(OCc2nc(-c3ccccc3)cn2C)nc2ccc(Cl)cc12 [Roche-Dataset for PDE10A, Compound 89]
43	Cn1cc(-c2ccccc2)nc1CCNC(=O)c1cccn2c(C3CC3)nnc12 [Roche-Dataset for PDE10A, Compound 92]
9.14	Cn1cc(-c2ccccc2)nc1CCc1nc2ccc(Cl)cc2c(=O)[nH]1 [Roche-Dataset for PDE10A, Compound 93]
987	Cn1cc(-c2ccccc2)nc1CCc1nc(-c2ccccc2)cc(=O)[nH]1 [Roche-Dataset for PDE10A, Compound 94]
8340	CN(c1cncnc1)c1ccc(C2CC2)nc1C(=O)N[C@@H]1CCN(c2ccc(Br)cn2)C1 [Roche-Dataset for PDE10A, Compound 95]
0.85	Cn1ncc(C(=O)N2CCC2)c1C(=O)Nc1ccn2nc(-c3cccc(OCF)c3)nc2c1 [Roche-Dataset for PDE10A, Compound 96]
0.64	COc1ccc(Cn2nc(N3CCCC3)nc2CCc2nc3c(Cl)cc(Cl)c(C)n3n2)cc1 [Roche-Dataset for PDE10A, Compound 97]
3.44	Cn1cc(-c2ccccc2)nc1CCc1nc2ccccc2nc1N1CCCC1 [Roche-Dataset for PDE10A, Compound 98]
17	Cc1cc(CNC(=O)c2cnn(C)c2C(=O)Nc2ccn3cc(-c4ccccc4)nc3n2)n[nH]1 [Roche-Dataset for PDE10A, Compound 99]
